32 molecules from patent US7553864B2, “Compounds for the treatment of inflammatory disorders and microbial diseases” (Schering Corporation, priority 2005, dated 2009) can be followed below.

This experiment addresses T1, ADMP (ADAMTS-4-5) (Homo sapiens, UniProt O75173).
T1 construct: purchased Calbiochem PF113
T1 sequence (O75173 213-837): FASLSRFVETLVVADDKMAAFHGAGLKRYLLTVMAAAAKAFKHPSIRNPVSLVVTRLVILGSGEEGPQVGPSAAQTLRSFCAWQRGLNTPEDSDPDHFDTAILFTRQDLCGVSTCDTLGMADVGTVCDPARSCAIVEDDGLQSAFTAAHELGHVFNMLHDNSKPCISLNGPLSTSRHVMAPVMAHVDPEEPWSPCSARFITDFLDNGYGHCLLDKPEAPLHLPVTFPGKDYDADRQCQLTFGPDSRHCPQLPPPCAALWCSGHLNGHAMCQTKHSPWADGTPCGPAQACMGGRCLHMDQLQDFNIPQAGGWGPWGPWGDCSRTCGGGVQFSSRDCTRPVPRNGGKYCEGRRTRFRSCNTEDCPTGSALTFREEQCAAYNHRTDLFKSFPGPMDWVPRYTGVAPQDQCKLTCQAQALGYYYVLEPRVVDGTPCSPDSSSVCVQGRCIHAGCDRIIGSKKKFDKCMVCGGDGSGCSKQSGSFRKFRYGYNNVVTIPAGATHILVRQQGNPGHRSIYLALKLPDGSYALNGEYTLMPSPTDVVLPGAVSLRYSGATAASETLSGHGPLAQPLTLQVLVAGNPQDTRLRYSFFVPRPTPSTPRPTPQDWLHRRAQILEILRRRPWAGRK
Put plainly: ADMP activity assay (procedures of WO00/05256). It counts as biochemical. From the text:
The procedures of International Patent Publication WO00/05256 (published Feb. 3, 2000) were followed for detection of ADMP Activity and for measuring the IC50 of the compounds of the present invention. This was indicative of activity against a desintgrin and metallopropeinase thrombo spondin 4 and 5 (ADAMTS-4-5).
The enzyme was purchased commercially from Calbiochem (Cat# PF113) and the peptide substrate described in the patent was custom-ordered from AnaSpec.

The mark [1] stands for this setting: read-out: IC50 rating (ADMP inhibitory activity).
[2] abbreviates: read-out: IC50 (ADMP inhibition).

Where two headings read alike, the source gives them in different places.

Regarding `CC(NC(=O)[C@H](O)[C@@H](O)C(=O)N1CCc2ccccc2C1)c1ccc(S(C)(=O)=O)cc1` (some centres unmarked) [Compound 186], the half-maximal inhibitory concentration (IC50) under setting [1] was more than 5000 nM.
Regarding `CN1CCC(N(C)C(=O)[C@H](O)[C@@H](O)C(=O)NCc2ccc(C(F)(F)F)cc2)CC1` [Compound 122], the IC50 under setting [1] fell in the range of 250 to 1000 nM.
With `C[C@H](NC(=O)[C@H](O)[C@@H](O)C(=O)N1Cc2ccccc2C1)c1ccc(Br)cc1` [Compound 175], the half-inhibitory concentration (IC50) under setting [1] is 250 to 1000 nM.
`C[C@H](NC(=O)[C@H](O)[C@@H](O)C(=O)N1Cc2ccccc2C[C@@H]1CO)c1ccc(Br)cc1` [Compound 138]: the IC50 under setting [2] worked out at 190 nM and the IC50 under setting [1] is less than 250 nM.
Take `C[C@H](NC(=O)[C@H](O)[C@@H](O)C(=O)N1CCc2ccccc2C1)c1ccc(Br)cc1` [Compound 114]: the IC50 under setting [1] is less than 250 nM.
Consider `COc1cccc(N2CCN(C(=O)[C@H](O)[C@@H](O)C(=O)N[C@@H](C)c3ccc(Br)cc3)CC2)c1` [Compound 143], for which the IC50 was 90 nM under setting [2] and less than 250 nM under setting [1].
Molecule `C[C@H](NC(=O)[C@H](O)[C@@H](O)C(=O)N1CCC(N2C(=O)Cc3ccccc32)CC1)c1ccc(Br)cc1` [Compound 165] gave an IC50 of 1000 to 5000 nM.
For the molecule `O=C(NCc1ccc(C(F)(F)F)cc1)[C@H](O)[C@@H](O)C(=O)N1CCN(c2ccc(F)cc2)CC1` [Compound 126], the half-maximal inhibitory concentration (IC50) under setting [1] was 250 to 1000 nM.
As to `C[C@H](NC(=O)[C@H](O)[C@@H](O)C(=O)N[C@H]1c2ccccc2C[C@H]1O)c1ccc(Br)cc1` [Compound 174], under setting [1], the IC50 was more than 5000 nM.
On to `C[C@H](NC(=O)C(O)C(O)C(=O)N1CCN(c2ccc(O)cc2)CC1)c1ccc(Br)cc1` (some centres unmarked) [Compound 215], for which, under setting [1], the IC50 was in the range of 1000 to 5000 nM.
For the molecule `COc1ccc(N2CCN(C(=O)[C@H](O)[C@@H](O)C(=O)NCc3ccc(Cl)cc3)CC2)cc1` [Compound 132], the IC50 under setting [1] fell in the range of 250 to 1000 nM.
Still for that read-out and setting: the same measure for `C[C@H](NC(=O)[C@H](O)[C@@H](O)C(=O)N1CCCC1c1cccc(Cl)c1)c1ccc(Br)cc1` (some centres unmarked) [Compound 209]: less than 250 nM; for `CC(NC(=O)[C@H](O)[C@@H](O)C(=O)N1CCc2ccccc2C1)c1ccc(C(F)(F)F)cc1` (some centres unmarked) [Compound 201]: 250 to 1000 nM.
For `C[C@H](NC(=O)[C@H](O)[C@@H](O)C(=O)N(C)C1Cc2ccccc2C1)c1ccc(Br)cc1` [Compound 206], under setting [1], the IC50 was in the range of 250 to 1000 nM.
Regarding `CC(=O)c1ccc(N2CCN(C(=O)[C@H](O)[C@@H](O)C(=O)NCc3ccc(Cl)cc3)CC2)cc1` [Compound 118], the IC50 under setting [1] is more than 5000 nM.
Turning to `C[C@H](NC(=O)[C@H](O)[C@@H](O)C(=O)N1CCN(c2ccc(F)cc2F)CC1)c1ccc(Br)cc1` [Compound 144], the IC50 under setting [1] was less than 250 nM.
On the same count and under the same terms, the same measure for `C[C@@H](c1ccc(Br)cc1)N(C)C(=O)[C@@H](O)[C@H](O)C(=O)N1CCc2ccccc2C1` [Compound 187]: more than 5000 nM.
In the case of `C[C@H](NC(=O)[C@H](O)[C@@H](O)C(=O)N1CCCC1c1nc2ccccc2s1)c1ccc(Br)cc1` (some centres unmarked) [Compound 160], the IC50 by setting is: under setting [2], 160 nM; under setting [1], less than 250 nM.
The like results for `C[C@H](NC(=O)[C@H](O)[C@@H](O)C(=O)N1CCC(S(=O)(=O)c2ccccc2)CC1)c1ccc(Br)cc1` [Compound 148] were, in that order, 47 nM and less than 250 nM.
Turning to `COc1ccc(CNC(=O)[C@H](O)[C@@H](O)C(=O)N2CCC(C(C)=O)(c3ccccc3)CC2)cc1` [Compound 108], the IC50 was 250 to 1000 nM.
Consider `COc1ccc(CNC(=O)[C@H](O)[C@@H](O)C(=O)N2CCC[C@H]2CN2CCCC2)cc1` [Compound 134], for which the IC50 under setting [1] is 250 to 1000 nM.
As for `C[C@H](NC(=O)[C@H](O)[C@@H](O)C(=O)N1CCc2c([nH]c3ccccc23)C1)c1ccc(Br)cc1` [Compound 169], the IC50 under setting [1] was 250 to 1000 nM.
In the case of `C[C@H](NC(=O)[C@H](O)[C@@H](O)C(=O)N(C)C1CCN(C)CC1)c1ccc(Br)cc1` [Compound 121], the IC50 under setting [1] was 1000 to 5000 nM.
Take `CN1CCC(N(C)C(=O)[C@@H](O)[C@H](O)C(=O)NCc2ccc(I)cc2)CC1` [Compound 189]: under setting [1], the IC50 was more than 5000 nM.
On to `C[C@H](NC(=O)[C@H](O)[C@@H](O)C(=O)N1CCc2ccccc2C1)c1ccc(-c2cccc(N3CCCC3)c2)cc1` [Compound 196], for which, under setting [1], the IC50 was less than 250 nM.
Consider `COc1ccc(N2CCN(C(=O)[C@H](O)[C@@H](O)C(=O)NCCc3cccc(Cl)c3)CC2)cc1` [Compound 131], for which, under setting [1], the IC50 is 250 to 1000 nM.
In the case of `C[C@H](NC(=O)[C@H](O)[C@@H](O)C(=O)N[C@@H]1c2ccccc2C[C@@H]1O)c1ccc(Br)cc1` [Compound 173], the IC50 under setting [1] was more than 5000 nM.
Take `O=C(NCc1ccc(I)cc1)[C@H](O)[C@@H](O)C(=O)N1CCc2ccccc2C1` [Compound 204]: the half-maximal inhibitory concentration (IC50) by setting is: under setting [2], 90 nM; under setting [1], less than 250 nM.
With `C[C@H](NC(=O)C(O)C(O)C(=O)N1CCc2ccccc2C1)c1ccc(C(F)(F)F)cc1F` (some centres unmarked) [Compound 220], the IC50 under setting [1] was more than 5000 nM.
For `C[C@H](NC(=O)[C@H](O)[C@@H](O)C(=O)N1CCCC1c1ccccc1)c1ccc(Br)cc1` (some centres unmarked) [Compound 172], the IC50 under setting [1] was 250 to 1000 nM.
For `COc1cc2c(cc1OC)CN(C(=O)[C@H](O)[C@@H](O)C(=O)N[C@@H](C)c1ccc(Br)cc1)CC2` [Compound 207], the IC50 runs as follows: under setting [2], 96 nM; under setting [1], less than 250 nM.
With `COc1ccccc1N1CCN(C(=O)[C@H](O)[C@@H](O)C(=O)N[C@@H](C)c2ccc(Br)cc2)CC1` [Compound 164], the IC50 under setting [1] was 250 to 1000 nM.
